Usually Ki stands for the equilibrium dissociation constant of an inhibitor or competing ligand from its target. High values mean a looser hold on the target, low ones a stronger hold on the target.

“And” between values parts separate entries of the source, which are not always exact repeats. Equal values may be shown once.

The values that follow come from BindingDB's records for doi:10.1016/0006-2952(81)90220-3 (Royal Postgraduate Medical School, 1981).

The target in this assay is Prostacyclin receptor (Mus musculus, UniProt P43252).
Sequence of Prostacyclin receptor (P43252 whole entry): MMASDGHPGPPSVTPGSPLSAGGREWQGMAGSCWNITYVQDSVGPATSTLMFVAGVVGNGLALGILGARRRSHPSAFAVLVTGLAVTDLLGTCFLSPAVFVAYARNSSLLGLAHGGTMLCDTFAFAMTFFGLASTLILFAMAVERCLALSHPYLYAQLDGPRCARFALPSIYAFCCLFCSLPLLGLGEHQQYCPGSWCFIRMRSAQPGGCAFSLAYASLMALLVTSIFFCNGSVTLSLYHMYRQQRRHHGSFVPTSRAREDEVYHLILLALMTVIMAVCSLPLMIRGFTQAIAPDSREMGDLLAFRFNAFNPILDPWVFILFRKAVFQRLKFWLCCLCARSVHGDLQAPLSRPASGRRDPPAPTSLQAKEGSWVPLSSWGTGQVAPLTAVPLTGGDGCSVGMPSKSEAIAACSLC
`CCCCC[C@H](O)/C=C/[C@H]1[C@H](O)CC(=O)[C@@H]1C/C=C/CCCC(=O)O` [(E)-7-((1R,2R,3R)-3-hydroxy-2-((S,E)-3-hydroxyoct-1-enyl)-5-oxocyclopentyl)hept-5-enoic acid]: the affinity corresponds to a Ki of 0.735 µM.

With `CCCCCC(O)C=CC1C(O)CC2OC(CCCCC(=O)O)CC21` (stereo not drawn) [CAS_162981], affinity was put at a Ki of 7.35 µM. Compared with the last compound, the Ki is about 10-fold higher. `CCCCCC(O)C=CC1C(O)CC(O)C1CCCCCCC(=O)O` (stereo not drawn) [NSC_5280939]: the Ki is more than 10 µM. For `CCCCC[C@H](O)/C=C/C1[C@H](O)CC(=O)[C@H]1CCCCCCC(=O)O` (stereo partly drawn) [8-ISO PROSTAGLANDIN E1] the value was 0.735 µM; for `CCCCC[C@@H](O)/C=C/[C@H]1[C@H](O)CC(=O)[C@@H]1C/C=C\CCCC(=O)O`, more than 10 µM; for `CCCCC[C@@H](O)/C=C/[C@H]1[C@H](O)CC(=O)[C@@H]1CCCCCCC(=O)O`, 0.137 µM.

Consider `CCCCCC(=O)CC[C@H]1[C@H](O)CC(=O)[C@@H]1C/C=C\CCCC(=O)O` [13,14-DIHYDRO-15-KETO PROSTAGLANDIN E2], for which the Ki was 8.41 µM and > 10 µM. The compound `CCCCC[C@H](O)/C=C/[C@H]1[C@H](O)CC(=O)[C@@H]1C/C=C\CCCC(=O)O` [DINOPROSTONE] displayed an inhibitory constant (Ki) of more than 10 µM. As to `O=C(O)CCC/C=C\C[C@H]1C(=O)C[C@@H](O)[C@@H]1/C=C/[C@@H](O)CCc1ccccc1` [17-PHENYL TRINOR PROSTAGLANDIN E2], the affinity, expressed as Ki, was 4.37 µM. To `CCCCC[C@H](O)/C=C/[C@@H]1[C@@H](CC(=O)CCC(=O)O)[C@@H](O)C[C@H]1O` [2,3-dinor-6-ketoprostaglandin F1alpha] belongs more than 10 µM; to `CCCCC[C@H](O)/C=C/[C@@H]1[C@H]2C/C(=C\CCCC(=O)O)C[C@H]2C[C@H]1O`, 0.0166 µM; to `CCCCC[C@H](O)/C=C/C1[C@H](O)C[C@H](O)[C@@H]1C/C=C\CCCC(=O)O` (stereo partly drawn) [(Z)-7-[(1R,3R,5S)-3,5-Dihydroxy-2-((E)-(S)-3-hydroxy-oct-1-enyl)-cyclopentyl]-hept-5-enoic acid], more than 10 µM. For `CCCCC[C@H](O)CC[C@H]1[C@H](O)CC(=O)[C@@H]1CCCCCCC(=O)O` [CAS_19313-28-1] the value was 0.315 µM.
